Laboratory results taken from US4008323A, “Method of reducing cholesterol using certain aromatic keto acids” (Pierre Fabre S.A., priority 1974, dated 1977).
Where two headings read alike, the source gives them in different places.

Experiments:
[1] = Solubility properties; assay type: physicochemical; details: for Solubility in ethyl alcohol: ethyl alcohol / ethanol / alcohol; for Solubility in water: in words; for Solubility in alcohol of 95° GL: alcohol / ethanol of 95° GL
[2] = Acute toxicity in mice, oral LD50 (method of Miller & Tainter); details: mouse, in vivo, mortality determined 48 hours after administration
Method: The chemical compounds previously described were submitted to toxicity tests. It was determined in mice by oral administration and was calculated in accordance with the method of MILLER & TAINTER. It is generally low and greater than 1000 mg/kg.

[3] = tested on: carrageenin edema; experiment: Carrageenin edema test in rats (antiinflammatory); assay type: in vivo; details: 75 mg/kg oral; for change in vivo at 75 mg/kg: Rattus norvegicus
Method: The antiinflammatory properties were shown by the carrageenin edema test in rats, the products having been administered orally 1 hour before the intrapodal injection of 0.05 ml of a 2% suspension of carrageenin; the volume of the rat's paw was measured by plethysmoscopy 3, 4 and 6 hours afterwards.
The experiment concerned for each lot […]; one lot of animals receiving only the vehicle (2 ml/100 g of Tween + water) which served for the administration of the products, constituted the control lot. The following table sets forth the results obtained: […]

[4] = tested on: writhings induced by phenylbenzoquinone; experiment: Writhing test, phenylbenzoquinone (analgetic); assay type: in vivo, mice; details: 200 mg/kg oral, t + 35 to t + 40 min
Method: The analgetic properties of certain compounds were shown in mice by the "writhing test" method, that is to say with reference to the writhings induced by phenylbenzoquinone. The administration of the product is effected orally at time t; it is followed by the intraperitoneal injection of 0.2% phenylbenzoquinone at t + 30 min. The determination of the writhings is effected from t + 35 min. to t + 40 min. One lot of animals receiving only the vehicle (5% Tween 80 in 0.9% NaCl) serves as control.

[5] = tested on: writhings induced by acetic acid; experiment: Writhing test, acetic acid (analgetic); assay type: in vivo, male mouse; details: 200 mg/kg by mouth, t + 60 to t + 70 min
Method: The administration of the compounds is effected by mouth at the time t. […] The determination of the writhings is effected from t + 60 min. to t + 70 min. The vehicle used for the administration of the products is a 5% solution of Tween 80 in 0.9% NaCl which will serve as control.

[6] = 3 hrs, read-out: % increase in volume of the paw, mean (m)
[7] = 4 hrs, read-out: % increase in volume of the paw, mean (m)
[8] = 6 hrs, read-out: % increase in volume of the paw, mean (m)
[9] = read-out: % mean variation of the volume of the paw at 3, 4 and 6 hrs

Structure (SMILES)	Solubility in ethyl alcohol [1] [%]	Solubility in water [1]	Solubility in N-methyl pyrrolidone [1] [%]	Solubility in alcohol of 95° GL [1] [%]	Solubility in NN-dimethyl acetamide [1] [%]	further results
CC(=CC(=O)c1ccc(-c2ccccc2Cl)cc1)C(=O)Nc1cccc(C(F)(F)F)c1 [F 1441]	6	insoluble	–	–	–	–
CC(=CC(=O)c1ccccc1)C(=O)Nc1cccc(C(F)(F)F)c1 [F 1442, 2-methyl 4-oxo 4-phenyl N(m-trifluoromethylphenyl) 2-butenamide]	–	insoluble	40	30	40	LD50 at 48 h [2]: > 1000 mg/kg; % var. / action (variation of paw volume increase vs controls) ([3]; 3 hrs): -16%; % var. / action (variation of paw volume increase vs controls) ([3]; 4 hrs): -14%; % var. / action (variation of paw volume increase vs controls) ([3]; 6 hrs): -11%; change in vivo at 75 mg/kg [3, 6]: 50%; change in vivo at 75 mg/kg [3, 7]: 51%; change in vivo at 75 mg/kg [3, 8]: 49%; change in vivo at 75 mg/kg [3, 9]: -13%
CC(=CC(=O)c1ccccc1)C(=O)N1CCOCC1 [F 1443, N-(4-phenyl 4-oxo 2-methyl 2-butenoyl)morpholine]	–	insoluble	5	1.5	5	–
CC(=CC(=O)c1ccc(-c2ccccc2)cc1)C(=O)O [F 1448, 2-methyl 4-oxo 4-(4'-phenylphenyl) 2-butenoic acid]	1	insoluble	20	–	25	–
C=C(CC(=O)c1ccc(-c2ccc(Cl)cc2)cc1)C(=O)O [F 1449, 2-methylene 4-oxo 4-(4' p-chlorophenylphenyl) butyric acid]	–	insoluble	30	–	30	% var. / action (variation of paw volume increase vs controls) ([3]; 3 hrs): -29%; % var. / action (variation of paw volume increase vs controls) ([3]; 4 hrs): -24%; % var. / action (variation of paw volume increase vs controls) ([3]; 6 hrs): -20%; change in vivo at 75 mg/kg [3, 6]: 42%; change in vivo at 75 mg/kg [3, 7]: 45%; change in vivo at 75 mg/kg [3, 8]: 44.5%; change in vivo at 75 mg/kg [3, 9]: -24%; Solubility in absolute alcohol ([1]; absolute alcohol): 1%; % Decrease (of writhings) [4]: 17%; Mean No. of Writhings [4]: 27,4
C=C(CC(=O)c1cccc2ccccc12)C(=O)O [F 1494, 2-methylene 4-oxo 4-naphthalene butanoic acid]	3	insoluble	50	–	50	–
C=C(CC(=O)c1ccc2c(c1)CCCC2)C(=O)O [F 1495, 2-methylene 4-oxo 4-(1'-2'-3'-4'-tetrahydronaphthalene) butyric acid]	–	insoluble	50	8	50	–
C=C(CC(=O)c1ccc(-c2ccccc2Cl)cc1)C(=O)O [F 1496, 2-methylene 4-oxo 4-(4'-orthochlorophenylphenyl) arginine butyrate]	–	soluble	–	–	–	–
C=C(CC(=O)c1ccc(OC)c(-c2ccccc2)c1)C(=O)O [F 1497, 2-methylene 4-oxo 4-(3' phenyl, 4'-methoxyphenyl) butyric acid]	–	insoluble	–	6	30	–
CC(=O)Oc1ccccc1C(=O)O [acetylsalicyclic acid, reference compound]	–	–	–	–	–	% Decrease (of writhings) [5]: 36,6%; Mean No. of Writhings [5]: 24,7
